This assay addresses Glucagon-like peptide 1 receptor (Homo sapiens, UniProt P43220). Kind of assay: Agonist activity at human GLP-1R expressed in CHO-K1 cells assessed as increase in cAMP level incubated for 30 mins. The class given is functional, cell-based. On the technique in general: Cyclic AMP is a second messenger, typically raised through Gs and lowered through Gi signalling.

The structures appear in SMILES notation. Where a SMILES comes first, the peptide text is derived from it. Bridges are numbered along the chain shown (N, C = ends). [ ]: non-standard residue; d: D form. Bip(2'-Et-4'-OMe) = CCc1cc(OC)ccc1-c1ccc(C[C@H](N)C(=O)O)cc1; αMePhe(2,6-F2) = C[C@](N)(Cc1c(F)cccc1F)C(=O)O; hhPhe = N[C@@H](CCCc1ccccc1)C(=O)O

Chain of Glucagon-like peptide 1 receptor (P43220 whole entry): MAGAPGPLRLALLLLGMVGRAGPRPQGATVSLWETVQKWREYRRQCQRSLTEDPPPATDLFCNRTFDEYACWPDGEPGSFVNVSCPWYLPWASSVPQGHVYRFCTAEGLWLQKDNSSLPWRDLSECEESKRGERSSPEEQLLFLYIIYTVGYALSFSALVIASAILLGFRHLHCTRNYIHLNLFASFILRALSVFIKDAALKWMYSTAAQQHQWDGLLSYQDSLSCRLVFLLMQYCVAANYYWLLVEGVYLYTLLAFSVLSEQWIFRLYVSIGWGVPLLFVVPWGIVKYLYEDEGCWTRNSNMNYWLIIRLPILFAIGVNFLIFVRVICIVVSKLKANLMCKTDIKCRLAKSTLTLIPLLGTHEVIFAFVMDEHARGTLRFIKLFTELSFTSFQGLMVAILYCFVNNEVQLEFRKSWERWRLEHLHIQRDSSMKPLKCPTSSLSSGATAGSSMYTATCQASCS

In general, EC50 refers to the concentration at which the effect is half-maximal. Turning to `CCc1cc(OC)ccc1-c1ccc(C[C@H](NC(=O)[C@H](CC(=O)O)NC(=O)[C@H](CO)NC(=O)[C@@H](NC(=O)[C@](C)(Cc2c(F)cccc2F)NC(=O)[C@@H](NC(=O)CNC(=O)[C@H](CCC(=O)O)NC(=O)[C@@H]2CCCN2C(=O)[C@@H](N)Cc2cnc[nH]2)[C@@H](C)O)[C@@H](C)O)C(=O)N[C@@H](CCCc2ccccc2)C(=O)N[C@H]2CSSC[C@@H](C(=O)N[C@@H](CO)C(N)=O)NC(=O)[C@H](C)NC(=O)CNC(=O)CNC(=O)CNC(=O)[C@H](C)NC(=O)[C@H](C)NC(=O)CNC(=O)CNC2=O)cc1` (H-HPEGT[αMePhe(2,6-F2)]TSD[Bip(2'-Et-4'-OMe)][hhPhe]CGGAAGGGACS-NH2; disulfide 12-21), the EC50 was determined as 13 nM.

Consider `CCc1cc(OC)ccc1-c1ccc(C[C@@H]2NC(=O)[C@H](CC(=O)O)NC(=O)[C@H](CO)NC(=O)[C@H]([C@@H](C)O)NC(=O)[C@H](Cc3ccccc3)NC(=O)[C@H]([C@@H](C)O)NC(=O)CNC(=O)[C@H](CCC(=O)O)NC(=O)[C@@H]3CCCN3C(=O)[C@H](Cc3cnc[nH]3)NC(=O)[C@H](CO)NC(=O)[C@@H]3CSSC[C@H](NC(=O)[C@H](CCCc4ccccc4)NC2=O)C(=O)NCC(=O)NCC(=O)N[C@@H](C)C(=O)N[C@@H](C)C(=O)NCC(=O)NCC(=O)NCC(=O)N[C@@H](C)C(=O)N3)cc1` (cyclo(AAGGGACSHPEGTFTSD[Bip(2'-Et-4'-OMe)][hhPhe]CGG); disulfide 7-20), for which the EC50 came out at 390 nM.

The values above are taken from ChEMBL document CHEMBL3632477 (2015).
